Measurements from ChEMBL document CHEMBL3352017, “2-Guanidinoquinazolines as new inhibitors of the STAT3 pathway” (Bioorg Med Chem Lett, 2014).
pIC50: −log10 of the molar value. The source made the active and inactive calls. The rule behind the calls is not given here.

What was measured:
[1] = cells; conditions: Homo sapiens, CAL-33
[2] = cells; conditions: Homo sapiens, OSC19
[3] = test system: FaDu; test: cells; conditions: Homo sapiens
[4] = cells; conditions: Homo sapiens
[5] = Selectivity index, ratio of IC50 for IFNgamma-induced STAT1 pathway in human Cal33 cells to IC50 for IL-6-induced STAT3 pathway in human Cal33 cells; type: cell-based; conditions: CAL-33
[6] = molecular target: Tyrosine-protein kinase JAK2 (Homo sapiens) (UniProt O60674); test: Inhibition of JAK2 phosphorylation in human Cal33 cells by Western blot analysis; type: cell-based; conditions: CAL-33
Tyrosine-protein kinase JAK2 (Homo sapiens), sequence (O60674 whole entry): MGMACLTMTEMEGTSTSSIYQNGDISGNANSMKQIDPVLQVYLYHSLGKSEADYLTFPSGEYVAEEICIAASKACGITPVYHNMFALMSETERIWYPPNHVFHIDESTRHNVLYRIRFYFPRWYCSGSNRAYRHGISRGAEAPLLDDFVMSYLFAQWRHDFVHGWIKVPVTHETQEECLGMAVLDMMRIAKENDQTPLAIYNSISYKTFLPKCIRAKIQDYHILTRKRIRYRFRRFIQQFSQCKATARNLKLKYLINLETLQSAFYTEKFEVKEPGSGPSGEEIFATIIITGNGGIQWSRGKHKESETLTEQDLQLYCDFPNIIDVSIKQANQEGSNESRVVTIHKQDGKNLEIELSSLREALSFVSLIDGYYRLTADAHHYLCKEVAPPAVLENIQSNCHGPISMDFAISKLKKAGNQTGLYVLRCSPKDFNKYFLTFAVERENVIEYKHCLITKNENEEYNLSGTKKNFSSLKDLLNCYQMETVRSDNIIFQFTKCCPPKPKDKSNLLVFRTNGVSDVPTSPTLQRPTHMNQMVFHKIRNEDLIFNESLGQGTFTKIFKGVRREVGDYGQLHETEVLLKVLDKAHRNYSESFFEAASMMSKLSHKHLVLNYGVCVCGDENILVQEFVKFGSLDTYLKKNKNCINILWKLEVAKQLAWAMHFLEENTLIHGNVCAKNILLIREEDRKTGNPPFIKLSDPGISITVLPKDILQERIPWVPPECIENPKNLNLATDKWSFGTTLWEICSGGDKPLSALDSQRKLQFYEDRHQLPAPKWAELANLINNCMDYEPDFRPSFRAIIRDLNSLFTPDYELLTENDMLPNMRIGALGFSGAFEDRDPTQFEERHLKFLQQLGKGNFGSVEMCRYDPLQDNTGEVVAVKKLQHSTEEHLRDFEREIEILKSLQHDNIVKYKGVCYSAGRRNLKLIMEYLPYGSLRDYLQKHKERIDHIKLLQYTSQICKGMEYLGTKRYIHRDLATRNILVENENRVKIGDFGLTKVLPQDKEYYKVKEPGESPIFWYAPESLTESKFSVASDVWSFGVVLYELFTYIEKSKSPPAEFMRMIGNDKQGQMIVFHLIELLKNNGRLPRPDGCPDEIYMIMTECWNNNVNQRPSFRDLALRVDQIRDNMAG

[7] = molecular target: Tyrosine-protein kinase JAK1 (Homo sapiens) (UniProt P23458); test: Inhibition of JAK1 phosphorylation in human Cal33 cells by Western blot analysis; type: cell-based; conditions: CAL-33
Tyrosine-protein kinase JAK1 (Homo sapiens), sequence (P23458 whole entry): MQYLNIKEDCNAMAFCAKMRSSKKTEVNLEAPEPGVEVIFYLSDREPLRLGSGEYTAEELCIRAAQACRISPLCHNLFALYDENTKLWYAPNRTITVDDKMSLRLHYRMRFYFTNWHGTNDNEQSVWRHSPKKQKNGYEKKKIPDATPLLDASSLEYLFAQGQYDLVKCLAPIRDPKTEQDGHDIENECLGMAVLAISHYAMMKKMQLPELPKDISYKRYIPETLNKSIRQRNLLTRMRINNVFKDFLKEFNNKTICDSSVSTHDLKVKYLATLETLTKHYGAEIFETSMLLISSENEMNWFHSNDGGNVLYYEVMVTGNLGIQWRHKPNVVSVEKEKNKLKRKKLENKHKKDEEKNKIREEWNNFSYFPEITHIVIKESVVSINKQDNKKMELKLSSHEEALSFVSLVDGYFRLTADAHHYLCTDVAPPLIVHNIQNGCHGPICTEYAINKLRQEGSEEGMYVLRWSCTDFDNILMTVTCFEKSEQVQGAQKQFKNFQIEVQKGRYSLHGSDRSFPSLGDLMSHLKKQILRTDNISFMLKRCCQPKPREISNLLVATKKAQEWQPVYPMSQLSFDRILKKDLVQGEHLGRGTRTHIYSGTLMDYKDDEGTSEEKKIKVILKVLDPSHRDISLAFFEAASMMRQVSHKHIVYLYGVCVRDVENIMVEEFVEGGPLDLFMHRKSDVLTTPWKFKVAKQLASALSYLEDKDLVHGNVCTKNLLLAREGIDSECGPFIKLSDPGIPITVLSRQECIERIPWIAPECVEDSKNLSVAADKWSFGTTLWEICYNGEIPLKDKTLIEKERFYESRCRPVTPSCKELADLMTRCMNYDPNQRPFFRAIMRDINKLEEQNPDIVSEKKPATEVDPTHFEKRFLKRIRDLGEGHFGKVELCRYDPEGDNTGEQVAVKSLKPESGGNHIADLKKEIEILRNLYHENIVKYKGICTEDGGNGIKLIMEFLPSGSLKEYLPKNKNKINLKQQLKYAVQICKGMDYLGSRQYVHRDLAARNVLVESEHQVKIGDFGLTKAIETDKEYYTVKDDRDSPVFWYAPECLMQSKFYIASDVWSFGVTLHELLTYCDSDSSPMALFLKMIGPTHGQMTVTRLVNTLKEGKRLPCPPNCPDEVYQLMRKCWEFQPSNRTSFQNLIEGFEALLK

[8] = molecular target: T1, Signal transducer and activator of transcription 1-alpha/beta (Homo sapiens) (UniProt P42224); test: Inhibition of IFNgamma-induced STAT1 pathway in human Cal33 cells at 50 uM; type: cell-based; conditions: CAL-33
T1 sequence (whole entry): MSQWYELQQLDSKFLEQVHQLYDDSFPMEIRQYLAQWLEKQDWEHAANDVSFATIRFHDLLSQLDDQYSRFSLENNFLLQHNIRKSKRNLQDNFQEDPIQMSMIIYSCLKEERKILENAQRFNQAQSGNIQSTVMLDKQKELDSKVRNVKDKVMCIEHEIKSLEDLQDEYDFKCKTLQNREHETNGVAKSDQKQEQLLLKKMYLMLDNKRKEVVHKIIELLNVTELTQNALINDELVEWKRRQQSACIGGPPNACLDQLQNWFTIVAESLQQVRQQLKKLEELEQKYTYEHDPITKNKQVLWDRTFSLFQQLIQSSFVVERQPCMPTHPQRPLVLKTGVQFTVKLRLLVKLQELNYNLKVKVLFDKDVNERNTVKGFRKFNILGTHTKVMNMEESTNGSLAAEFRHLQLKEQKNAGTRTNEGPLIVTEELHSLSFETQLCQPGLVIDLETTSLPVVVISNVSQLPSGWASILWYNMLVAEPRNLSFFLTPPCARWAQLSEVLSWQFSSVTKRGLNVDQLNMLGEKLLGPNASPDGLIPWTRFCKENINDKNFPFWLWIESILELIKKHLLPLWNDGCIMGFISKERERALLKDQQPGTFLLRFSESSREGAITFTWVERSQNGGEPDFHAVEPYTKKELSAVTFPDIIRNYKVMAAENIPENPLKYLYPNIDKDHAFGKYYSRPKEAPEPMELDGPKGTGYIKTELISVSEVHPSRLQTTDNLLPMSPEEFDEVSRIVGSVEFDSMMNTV

Compound	pIC50 [2]	pIC50 [4]	Ratio IC50 [5]	also measured
Cc1cc(C)c2nc(Nc3nc(C)c(C)c(O)n3)nc(C)c2c1			> 7	
COc1ccc2nc(Nc3nc(=O)cc(C)[nH]3)nc(C)c2c1			> 1	
Cc1cc2nc(Nc3nc(=O)c(C)c(C)[nH]3)nc(C)c2cc1C			> 4	
Cc1nc(Nc2nc(=O)cc(-c3ccccc3)[nH]2)nc2cc3c(cc12)OCO3			> 3	

Continued, in another order:

pIC50 [2]	pIC50 [4]	Compound	Ratio IC50 [5]	also measured
5.49	5.62	CC1=CC(C)(C)N=C(Nc2nc(C)c3cc(C)cc(C)c3n2)N1		pIC50 [1]: 5.92; pIC50 [3]: 5.72
4.72	4.42	CCOc1ccc2nc(Nc3nc(=O)cc(-c4ccccc4)[nH]3)nc(C)c2c1		
4.89	4.31	CC1=CC(C)(C)N=C(Nc2nc(C)c3cc(C)ccc3n2)N1		
4.77	4.43	CCOc1ccc2nc(NC3=NC(C)=CC(C)(C)N3)nc(C)c2c1		inhibition [6]: inactive; inhibition [7]: inactive; pIC50 [1]: 4.53; inhibition [8]: inactive; pIC50 [3]: 4.73
